In patent US12258327B2, “5-membered heteroaryl-containing aminopyridine compounds as EGFR inhibitors” (YUHAN CORPORATION, priority 2021, dated 2025):
Read-outs that look alike come from different tables or passages of the source.

Columns and labels:
[1] = molecular target: EGFR del19/C797S (Homo sapiens, UniProt P00533, C797S/DEL746-750); experiment: Biochemical EGFR kinase assay (Lance Ultra TR-FRET), double mutant del19/C797S
Method: (§1) Biochemical EGFR kinase assays were conducted using Lance Ultra time-resolved fluorescence resonance energy transfer (TR-FRET) technology from Perkin-Elmer. Compounds of the invention were initially diluted to 20 mM in 100% DMSO for storage and made into kinase buffer solution to create a compound concentration ranging from 0.003 μM and 10 μM.
(§2) Each kinase reactions were incubated at room temperature for 1 hour and then stopped by the addition of 4 μL of stop solution (10 mM EDTA). The specific Europium-labeled-anti-phosphopeptide antibody (PerkinElmer, AD0069) diluted in LANCE detection buffer was then added to a final concentration of 2 nM. After 60 minutes incubation at room temperature the LANCE signal was measured on an EnVision Multilabel Reader (Perkin-Elmer). Excitation wavelength was set at 320 nm and emission monitored at 615 nm (donor) and 665 nm (acceptor). The IC50 values were determined using GraphPad prism software (GraphPad Software, Inc., San Diego, CA, USA).

[2] = molecular target: EGFR L858R/T790M/C797S (Homo sapiens, UniProt P00533, C797S/L858R/T790M); experiment: Biochemical EGFR kinase assay (Lance Ultra TR-FRET), triple mutant L858R/T790M/C797S
EGFR L858R/T790M/C797S, sequence (P00533 25-1210 T790M/C797S/L858R): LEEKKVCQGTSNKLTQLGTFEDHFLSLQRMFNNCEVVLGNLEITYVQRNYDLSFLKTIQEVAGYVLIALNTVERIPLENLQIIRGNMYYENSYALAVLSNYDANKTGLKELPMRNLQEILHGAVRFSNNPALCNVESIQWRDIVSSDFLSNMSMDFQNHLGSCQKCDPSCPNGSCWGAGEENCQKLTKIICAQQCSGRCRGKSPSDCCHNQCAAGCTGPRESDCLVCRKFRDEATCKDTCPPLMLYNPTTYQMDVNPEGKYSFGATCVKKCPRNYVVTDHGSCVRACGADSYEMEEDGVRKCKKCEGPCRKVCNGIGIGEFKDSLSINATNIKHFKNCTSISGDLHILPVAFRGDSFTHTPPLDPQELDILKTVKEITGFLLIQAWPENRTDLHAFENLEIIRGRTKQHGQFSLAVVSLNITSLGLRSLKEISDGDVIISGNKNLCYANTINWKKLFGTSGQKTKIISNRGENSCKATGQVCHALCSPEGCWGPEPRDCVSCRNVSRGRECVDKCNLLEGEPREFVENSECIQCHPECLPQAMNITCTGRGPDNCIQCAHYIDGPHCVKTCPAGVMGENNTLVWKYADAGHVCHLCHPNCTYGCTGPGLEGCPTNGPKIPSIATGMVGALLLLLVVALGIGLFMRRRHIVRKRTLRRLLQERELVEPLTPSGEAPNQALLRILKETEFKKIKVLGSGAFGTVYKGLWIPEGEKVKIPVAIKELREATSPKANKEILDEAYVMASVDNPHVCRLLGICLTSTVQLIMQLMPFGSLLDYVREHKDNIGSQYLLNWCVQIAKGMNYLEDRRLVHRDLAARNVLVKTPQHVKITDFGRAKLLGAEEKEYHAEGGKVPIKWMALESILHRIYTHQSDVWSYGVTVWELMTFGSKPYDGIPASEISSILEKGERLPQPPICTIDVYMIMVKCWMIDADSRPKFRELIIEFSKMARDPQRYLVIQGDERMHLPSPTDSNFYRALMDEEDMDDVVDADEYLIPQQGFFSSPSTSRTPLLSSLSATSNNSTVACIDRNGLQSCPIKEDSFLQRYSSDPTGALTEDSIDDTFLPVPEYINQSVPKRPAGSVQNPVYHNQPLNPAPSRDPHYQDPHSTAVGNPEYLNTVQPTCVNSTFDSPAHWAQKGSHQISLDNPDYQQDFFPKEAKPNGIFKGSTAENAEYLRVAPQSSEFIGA
Method: as §1, §2

[3] = molecular target: EGFR wildtype (WT) (Homo sapiens, UniProt P00533); experiment: Biochemical EGFR kinase assay (Lance Ultra TR-FRET), wildtype
EGFR wildtype (WT), sequence (P00533 25-1210): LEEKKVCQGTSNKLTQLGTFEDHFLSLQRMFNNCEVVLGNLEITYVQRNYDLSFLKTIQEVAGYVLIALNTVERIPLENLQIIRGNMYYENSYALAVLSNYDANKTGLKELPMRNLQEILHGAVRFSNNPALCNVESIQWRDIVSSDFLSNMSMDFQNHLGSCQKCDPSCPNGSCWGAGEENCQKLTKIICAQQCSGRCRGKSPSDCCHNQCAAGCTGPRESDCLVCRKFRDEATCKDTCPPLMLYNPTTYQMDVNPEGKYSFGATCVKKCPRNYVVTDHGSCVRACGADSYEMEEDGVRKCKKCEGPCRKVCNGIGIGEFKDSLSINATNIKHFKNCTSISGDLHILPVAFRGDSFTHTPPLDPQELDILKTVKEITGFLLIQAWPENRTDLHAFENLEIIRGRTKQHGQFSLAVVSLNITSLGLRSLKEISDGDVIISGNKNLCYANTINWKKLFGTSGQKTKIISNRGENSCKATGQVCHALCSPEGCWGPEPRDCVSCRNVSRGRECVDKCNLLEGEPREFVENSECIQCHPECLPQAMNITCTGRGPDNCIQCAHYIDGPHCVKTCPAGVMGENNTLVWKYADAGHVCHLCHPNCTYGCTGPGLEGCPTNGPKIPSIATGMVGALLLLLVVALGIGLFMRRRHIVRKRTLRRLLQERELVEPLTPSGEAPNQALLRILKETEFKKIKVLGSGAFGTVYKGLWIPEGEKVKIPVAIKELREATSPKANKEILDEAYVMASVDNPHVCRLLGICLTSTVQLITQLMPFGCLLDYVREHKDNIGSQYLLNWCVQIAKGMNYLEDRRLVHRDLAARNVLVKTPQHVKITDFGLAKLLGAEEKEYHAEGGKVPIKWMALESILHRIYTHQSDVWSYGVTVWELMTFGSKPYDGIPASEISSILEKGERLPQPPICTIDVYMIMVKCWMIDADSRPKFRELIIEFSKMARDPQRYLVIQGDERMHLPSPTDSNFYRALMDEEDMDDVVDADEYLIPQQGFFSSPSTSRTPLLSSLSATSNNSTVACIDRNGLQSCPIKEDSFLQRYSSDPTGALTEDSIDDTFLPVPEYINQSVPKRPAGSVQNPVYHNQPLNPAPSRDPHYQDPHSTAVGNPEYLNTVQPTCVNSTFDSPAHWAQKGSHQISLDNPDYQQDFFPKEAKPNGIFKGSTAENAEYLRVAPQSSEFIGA
Method: as §1, §2

[4] = molecular target: EGFR del19/T790M/C797S (Homo sapiens, UniProt P00533, C797S/DEL746-750/T790M); experiment: Biochemical EGFR kinase assay (Lance Ultra TR-FRET), triple mutant del19/T790M/C797S
EGFR del19/T790M/C797S, sequence (P00533 with tags, fused parts or gaps DEL746-750/T790M/C797S): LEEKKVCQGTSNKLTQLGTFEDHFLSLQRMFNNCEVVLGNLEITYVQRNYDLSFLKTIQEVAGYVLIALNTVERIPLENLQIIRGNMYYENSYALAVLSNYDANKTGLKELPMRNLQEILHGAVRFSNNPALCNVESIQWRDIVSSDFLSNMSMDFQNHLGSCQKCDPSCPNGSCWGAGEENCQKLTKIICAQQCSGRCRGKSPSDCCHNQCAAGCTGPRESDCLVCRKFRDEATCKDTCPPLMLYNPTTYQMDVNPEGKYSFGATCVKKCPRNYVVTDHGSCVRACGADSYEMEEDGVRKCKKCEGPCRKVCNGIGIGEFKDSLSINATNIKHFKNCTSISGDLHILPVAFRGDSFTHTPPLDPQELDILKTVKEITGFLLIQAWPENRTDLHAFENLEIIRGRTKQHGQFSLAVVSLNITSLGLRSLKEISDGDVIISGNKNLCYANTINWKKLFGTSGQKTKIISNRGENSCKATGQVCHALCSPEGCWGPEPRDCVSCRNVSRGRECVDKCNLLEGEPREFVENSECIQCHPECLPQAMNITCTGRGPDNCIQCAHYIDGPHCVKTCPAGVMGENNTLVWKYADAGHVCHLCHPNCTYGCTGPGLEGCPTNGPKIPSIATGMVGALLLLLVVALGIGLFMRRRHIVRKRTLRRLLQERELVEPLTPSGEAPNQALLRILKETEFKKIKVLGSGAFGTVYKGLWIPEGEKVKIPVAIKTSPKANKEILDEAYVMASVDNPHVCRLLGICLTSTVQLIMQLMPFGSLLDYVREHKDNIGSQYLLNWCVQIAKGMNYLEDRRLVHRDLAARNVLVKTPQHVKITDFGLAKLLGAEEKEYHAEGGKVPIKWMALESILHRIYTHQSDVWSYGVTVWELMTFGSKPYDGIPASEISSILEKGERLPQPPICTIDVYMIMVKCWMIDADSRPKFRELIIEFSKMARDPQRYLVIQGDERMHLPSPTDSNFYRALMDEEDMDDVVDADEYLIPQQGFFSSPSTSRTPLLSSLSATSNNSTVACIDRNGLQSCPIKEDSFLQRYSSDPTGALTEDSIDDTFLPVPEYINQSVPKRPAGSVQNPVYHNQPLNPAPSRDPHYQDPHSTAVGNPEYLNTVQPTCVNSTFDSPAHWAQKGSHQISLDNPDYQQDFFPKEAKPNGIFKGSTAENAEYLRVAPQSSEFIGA
Method: as §1, §2

[5] = molecular target: EGFR L858R/C797S (Homo sapiens, UniProt P00533, C797S/L858R); experiment: Biochemical EGFR kinase assay (Lance Ultra TR-FRET), double mutant L858R/C797S
Method: as §1, §2

[6] = IC50 del19/C797S (nM) 100 μM ATP, 100 μM ATP
[7] = IC50 L858R/T790M/C797S (nM) 100 μM ATP, 100 μM ATP
[8] = IC50 WT (nM) 100 μM ATP, 100 μM ATP
[9] = Km ATP, read-out: IC50 WT (nM) Km ATP
[10] = Km ATP, read-out: IC50 del19/T790M/C797S (nM) Km ATP
[11] = Km ATP, read-out: IC50 del19/C797S (nM) Km ATP
[12] = Km ATP, read-out: IC50 L858R/T790M/C797S (nM) Km ATP
[13] = Km ATP, read-out: IC50 L858R/C797S (nM) Km ATP
[14] = IC50 L858R/C797S (nM) 100 μM ATP, 100 μM ATP
[15] = Km ATP, read-out: IC50 del19/C797S, Km ATP
[16] = Km ATP, read-out: IC50 L858R/T790M/C797S, Km ATP
[17] = Km ATP, read-out: IC50 WT, Km ATP
[18] = Km ATP, read-out: IC50 L858R/C797S, Km ATP

EGFR del19/C797S, sequence (P00533 with tags, fused parts or gaps DEL746-750/C797S): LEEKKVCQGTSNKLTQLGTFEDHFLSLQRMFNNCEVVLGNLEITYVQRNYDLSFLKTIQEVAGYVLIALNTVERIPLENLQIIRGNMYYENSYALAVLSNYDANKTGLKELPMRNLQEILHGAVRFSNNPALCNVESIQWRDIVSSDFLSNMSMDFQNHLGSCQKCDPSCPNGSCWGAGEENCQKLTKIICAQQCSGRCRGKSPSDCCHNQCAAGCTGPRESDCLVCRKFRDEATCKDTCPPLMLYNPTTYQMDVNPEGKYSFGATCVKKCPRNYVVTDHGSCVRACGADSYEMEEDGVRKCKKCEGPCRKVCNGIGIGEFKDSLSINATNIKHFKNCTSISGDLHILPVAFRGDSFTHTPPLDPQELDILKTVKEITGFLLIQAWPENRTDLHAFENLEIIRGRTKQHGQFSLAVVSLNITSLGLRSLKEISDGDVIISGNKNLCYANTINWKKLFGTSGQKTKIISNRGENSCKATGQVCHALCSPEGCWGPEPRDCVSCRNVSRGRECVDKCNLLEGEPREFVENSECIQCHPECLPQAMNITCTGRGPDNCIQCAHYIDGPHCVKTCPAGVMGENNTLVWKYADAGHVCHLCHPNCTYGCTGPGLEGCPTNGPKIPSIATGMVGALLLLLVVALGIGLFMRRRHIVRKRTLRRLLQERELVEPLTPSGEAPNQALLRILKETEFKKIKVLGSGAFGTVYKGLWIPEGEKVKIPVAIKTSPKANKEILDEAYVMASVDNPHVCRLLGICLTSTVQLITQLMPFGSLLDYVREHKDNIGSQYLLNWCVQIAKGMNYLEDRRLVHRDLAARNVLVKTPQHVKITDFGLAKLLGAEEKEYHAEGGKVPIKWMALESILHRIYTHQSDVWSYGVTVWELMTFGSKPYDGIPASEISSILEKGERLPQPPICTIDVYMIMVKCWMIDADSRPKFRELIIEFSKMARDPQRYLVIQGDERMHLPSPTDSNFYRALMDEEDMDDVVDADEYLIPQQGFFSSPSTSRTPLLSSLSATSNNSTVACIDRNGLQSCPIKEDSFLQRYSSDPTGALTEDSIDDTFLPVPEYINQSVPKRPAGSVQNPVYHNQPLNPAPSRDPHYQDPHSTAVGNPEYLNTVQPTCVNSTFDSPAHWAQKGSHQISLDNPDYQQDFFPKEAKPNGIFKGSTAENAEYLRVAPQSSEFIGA

Row | SMILES | IC50 [1, 6] | IC50 [3, 8] | IC50 [3, 9] | IC50 [4, 10] | IC50 [1, 11] | IC50 [2, 12] | IC50 [5, 14] | other results
1 | C[C@]1(O)CC[C@@H](Nc2cc(Nc3ccnc(-c4cnn(S(=O)(=O)C5CC5)c4)n3)ncc2-c2cn(C(F)F)cn2)CC1 [Example 273, (1s,4s)-4-((2-((2-(1-(Cyclopropylsulfonyl)-1H-pyrazol-4-yl)pyrimidin-4-yl)amino)-5-(1-(difluoromethyl)-1H-imidazol-4-yl)pyridin-4-yl)amino)-1-methylcyclohexan-1-ol] | 0.9 nM | 7310 nM | 5.9 nM | 3.1 nM | – | – | – | IC50 [2, 7]: 1.3 nM
2 | CC(C)n1cc(C#Cc2cc(Nc3ccnc(-c4cnn(S(=O)(=O)C5CC5)c4)n3)ncc2-c2cnn(C3CC3)c2)cn1 [Example 6, N-(5-(1-Cyclopropyl-1H-pyrazol-4-yl)-4-((1-isopropyl-1H-pyrazol-4-yl)ethynyl)pyridin-2-yl)-2-(1-(cyclopropylsulfonyl)-1H-pyrazol-4-yl)pyrimidin-4-amine] | – | – | – | 16.1 nM | 347 nM | 19.5 nM | – | –
3 | Cn1cc(C#Cc2cc(Nc3ccnc(-c4cnn(S(=O)(=O)C5CC5)c4)n3)ncc2-c2cnn(C3CC3)c2)cn1 [Example 1, N-(5-(1-Cyclopropyl-1H-pyrazol-4-yl)-4-((1-methyl-1H-pyrazol-4-yl)ethynyl)pyridin-2-yl)-2-(1-(cyclopropylsulfonyl)-1H-pyrazol-4-yl)pyrimidin-4-amine] | – | – | 88.5 nM | 99 nM | 63 nM | 5.9 nM | – | –
4 | OCC[C@H]1CC[C@H](Nc2cc(Nc3ccnc(-c4cnn(CC(F)F)c4)n3)ncc2-c2ccn(C(F)F)n2)CC1 [Example 147, 2-((1r,4r)-4-((2-((2-(1-(2,2-Difluoroethyl)-1H-pyrazol-4-yl)pyrimidin-4-yl)amino)-5-(1-(difluoromethyl)-1H-pyrazol-3-yl)pyridin-4-yl)amino)cyclohexyl)ethan-1-ol] | – | – | 51.5 nM | – | 93.9 nM | 0.8 nM | – | IC50 [5, 13]: 32.6 nM
5 | O=S(=O)(C1CC1)n1cc(-c2nccc(Nc3cc(N[C@H]4CC[C@@H](CCO)CC4)c(-c4ccn(C(F)F)n4)cn3)n2)cn1 [Example 135, 2-((1s,4s)-4-((2-((2-(1-(Cyclopropylsulfonyl)-1H-pyrazol-4-yl)pyrimidin-4-yl)amino)-5-(1-(difluoromethyl)-1H-pyrazol-3-yl)pyridin-4-yl)amino)cyclohexyl)ethan-1-ol] | 1.1 nM | > 10000 nM | 5.7 nM | – | 0.7 nM | 0.5 nM | 58 nM | IC50 [5, 13]: 4.5 nM; IC50 [2, 7]: 2.1 nM
6 | O=S(=O)(C1CC1)n1cc(-c2nccc(Nc3cc(C#Cc4cnn(C5CC5)c4)c(-c4cnn(C5CC5)c4)cn3)n2)cn1 [Example 5, N-(5-(1-Cyclopropyl-1H-pyrazol-4-yl)-4-((1-cyclopropyl-1H-pyrazol-4-yl)ethynyl)pyridin-2-yl)-2-(1-(cyclopropylsulfonyl)-1H-pyrazol-4-yl)pyrimidin-4-amine] | – | – | – | 10.6 nM | 317 nM | 13.2 nM | – | –
7 | C[C@]1(O)CC[C@@H](Nc2cc(Nc3ccnc(-c4cnn(S(=O)(=O)C5CC5)c4)n3)ncc2-c2ccn(C(F)(F)F)n2)CC1 [Example 285, (1s,4s)-4-((2-((2-(1-(Cyclopropylsulfonyl)-1H-pyrazol-4-yl)pyrimidin-4-yl)amino)-5-(1-(trifluoromethyl)-1H-pyrazol-3-yl)pyridin-4-yl)amino)-1-methylcyclohexan-1-ol] | – | – | 3.2 nM | – | 2.3 nM | 0.7 nM | – | IC50 [5, 13]: 0.6 nM
8 | C[C@]1(O)CC[C@@H](Nc2cc(Nc3ccnc(-c4cnn(S(=O)(=O)C5CC5)c4)n3)ncc2-c2ccn(CC(F)(F)F)n2)CC1 [Example 289, (1s,4s)-4-((2-((2-(1-(Cyclopropylsulfonyl)-1H-pyrazol-4-yl)pyrimidin-4-yl)amino)-5-(1-(2,2,2-trifluoroethyl)-1H-pyrazol-3-yl)pyridin-4-yl)amino)-1-methylcyclohexan-1-ol] | 2.7 nM | > 10000 nM | 17.4 nM | – | – | – | 27.4 nM | –
9 | Cn1nc(-c2cnc(Nc3ccnc(-c4cnn(CC(F)F)c4)n3)cc2N[C@H]2CC[C@@H](CCO)CC2)cc1C(F)(F)F [Example 333, 2-((1s,4s)-4-((2-((2-(1-(2,2-Difluoroethyl)-1H-pyrazol-4-yl)pyrimidin-4-yl)amino)-5-(1-methyl-5-(trifluoromethyl)-1H-pyrazol-3-yl)pyridin-4-yl)amino)cyclohexyl)ethan-1-ol] | – | – | – | – | – | – | – | IC50 [1, 15]: 16.5 nM; IC50 [2, 16]: 2.9 nM; IC50 [3, 17]: 61.5 nM; IC50 ([4]; Km ATP, read-out: IC50 del19/T790M/C797S, Km ATP): 4.4 nM
10 | C[C@]1(O)CC[C@@H](Nc2cc(Nc3ccnc(-c4cnn(S(=O)(=O)C5CC5)c4)n3)ncc2-n2ccc(OC(F)F)n2)CC1 [Example 187, (1s,4s)-4-((2-((2-(1-(Cyclopropylsulfonyl)-1H-pyrazol-4-yl)pyrimidin-4-yl)amino)-5-(3-(difluoromethoxy)-1H-pyrazol-1-yl)pyridin-4-yl)amino)-1-methylcyclohexan-1-ol] | – | – | 282 nM | 0.7 nM | 15.4 nM | 0.5 nM | – | –
11 | Cc1nn(CC(F)(F)F)cc1-c1nccc(Nc2cc(N[C@H]3CC[C@@](C)(O)CC3)c(-c3ccn(C(F)(F)F)n3)cn2)n1 [Example 341, (1s,4s)-1-Methyl-4-((2-((2-(3-methyl-1-(2,2,2-trifluoroethyl)-1H-pyrazol-4-yl)pyrimidin-4-yl)amino)-5-(1-(trifluoromethyl)-1H-pyrazol-3-yl)pyridin-4-yl)amino)cyclohexan-1-ol] | – | – | – | – | – | – | – | IC50 [1, 15]: 22 nM; IC50 [5, 18]: 14.8 nM; IC50 [2, 16]: 0.9 nM; IC50 [3, 17]: 48.4 nM
12 | O=S(=O)(C1CC1)n1cc(-c2nccc(Nc3cc(N[C@H]4CC[C@@H](NCC(F)F)CC4)c(-c4cc5n(n4)CCCC5)cn3)n2)cn1 [Example 63, N^2-(2-(1-(Cyclopropylsulfonyl)-1H-pyrazol-4-yl)pyrimidin-4-yl)-N^4-((1s,4s)-4-((2,2-difluoroethyl)amino)cyclohexyl)-5-(4,5,6,7-tetrahydropyrazolo[1,5-a]pyridin-2-yl)pyridine-2,4-diamine] | 2.2 nM | > 10000 nM | 4.4 nM | – | 1.8 nM | 0.7 nM | 7.7 nM | IC50 [5, 13]: 2.2 nM; IC50 [2, 7]: 3.3 nM
13 | C[C@]1(O)CC[C@@H](Nc2cc(Nc3ccnc(-c4cnn(S(=O)(=O)C5CC5)c4)n3)ncc2-c2ccn(C(F)F)n2)CC1 [Example 10, (1s,4s)-4-((2-((2-(1-(Cyclopropylsulfonyl)-1H-pyrazol-4-yl)pyrimidin-4-yl)amino)-5-(1-(difluoromethyl)-1H-pyrazol-3-yl)pyridin-4-yl)amino)-1-methylcyclohexan-1-ol] | 3.2 nM | 1060 nM | – | – | – | – | 2.7 nM | IC50 [2, 7]: 1.3 nM
14 | CC(C)(O)[C@H]1CC[C@@H](Nc2nc(Nc3ccnc(-c4cnn(S(=O)(=O)C5CC5)c4)c3)ncc2-c2ccn(C(F)F)n2)CC1 [Example 365, 2-((1s,4s)-4-((2-((2-(1-(Cyclopropylsulfonyl)-1H-pyrazol-4-yl)pyridin-4-yl)amino)-5-(1-(difluoromethyl)-1H-pyrazol-3-yl)pyrimidin-4-yl)amino)cyclohexyl)propan-2-ol] | – | – | – | – | – | – | – | IC50 [1, 15]: 45.4 nM; IC50 [5, 18]: 48.4 nM; IC50 [2, 16]: 2.3 nM; IC50 [3, 17]: 306 nM
15 | CC(C)(O)c1nc(-c2cnc(Nc3ccnc(-c4cnn(S(=O)(=O)C5CC5)c4)n3)cc2N[C@H]2CC[C@@](C)(O)CC2)cs1 [Example 93, (1s,4s)-4-((2-((2-(1-(Cyclopropylsulfonyl)-1H-pyrazol-4-yl)pyrimidin-4-yl)amino)-5-(2-(2-hydroxypropan-2-yl)thiazol-4-yl)pyridin-4-yl)amino)-1-methylcyclohexan-1-ol] | 5.3 nM | > 10000 nM | – | – | – | – | 15.7 nM | IC50 ([4]; IC50 del19/T790M/C797S (nM) 100 μM ATP, 100 μM ATP): 4 nM
16 | Cn1cc(C#Cc2cc(Nc3ccnc(-c4cnn(S(=O)(=O)C5CC5)c4)n3)ncc2-c2cnn(CC3CC3)c2)cn1 [Example 3, N-(5-(1-(Cyclopropylmethyl)-1H-pyrazol-4-yl)-4-((1-methyl-1H-pyrazol-4-yl)ethynyl)pyridin-2-yl)-2-(1-(cyclopropylsulfonyl)-1H-pyrazol-4-yl)pyrimidin-4-amine] | – | – | 229 nM | 6.4 nM | 39.7 nM | – | – | –
